Measured values as given in patent US6710078B2, “5-Substituted-3(2H)-furanones useful for inhibition of farnesyl-protein transferase” (Wyeth Holdings Corporation, priority 2001, dated 2004).

Assays:
FPTase [1] = molecular target: T1, FPTase (Homo sapiens, UniProt P49354+P49356); assay: in vitro FTase Inhibition Assay, H-Ras as substrate for farnesylation; format: biochemical; conditions: H-Ras used as substrate for farnesylation
Experimental: (§1) Enzyme test procedure: FPTase inhibition in vitro assay was performed according to James, G. L., Brown, M. S., and Goldstein, J. L., Methods in Enzymology, 1995, 255, 38-46; and Garcia, M. A., et al., J. Biol. Chem., 1993, 268,18415-18420.
(§2) Materials—Purified FPTase (Moomaw, J. F. and Casey, P. J., J. Biol. Chem., 1992, 267,17438-17443), purified His6-Ras, inhibitor compounds at 10 mg/ml or 10 mM in 100% DMSO, ^3H-FPP (50,000 dpm/pmol) Amersham, TCA/SDS (6%/2%), TCA (6%), Glass fiber filters ([…]), vacuum manifold or 96 well filtration plates.
(§3) Methods—1. Dilute FPTase inhibitors from stock solutions to 2.5× in 2.5% DMSO, 10 mM DTT, 0.5% octyl-B-glucoside. 2. Solution #1 is added to FPTase reaction in a volume of […]. 3. Standard reaction mix, […], contains 50 mM Tris (7.5),[…], 3 mM MgCl2, 20 mM KCl, 5 mM DTT, 0.2% octyl-B-glucoside, 1% DMSO, […], 10 ng FPTase, and various concentrations of FPTase inhibitors. 4. Incubate for 30-90 min at 25° C. 5. Stop reactions with TCA/SDS (6%/2%), hold at 4° C. for 45-60 min. 6. Filter by manifold or 96 well plate, wash filter 3-5× with TCA (6%). 7. Add scintillant to filters, measure ^3H-FPP incorporation into Ras protein.
(§4) Analysis of Results—Percent inhibition by test compounds is determined by the following:
(§5) (cpm from precipitated Ras with test compounds)−(background cpm)×100=% inhibition.
(§6) (cpm from precipitated Ras without test compounds)−(background cpm)

FPTase [2] = molecular target: T1, FPTase; assay: in vitro FTase Inhibition Assay, K-Ras as substrate for farnesylation; format: biochemical; conditions: K-Ras used as substrate for farnesylation
Experimental: as §1, §2, §3, §4, §5, §6

| SMILES | IC50 (FPTase [1]) [nM] | IC50 (FPTase [2]) [nM] |
| --- | --- | --- |
| CC1(c2ccccc2)OC(CC(SCCCCS)c2ccsc2)=CC1=O (stereo not shown) [Example 9, 5-[2-[(4-Mercaptobutyl)thio]-2-(3-thienyl)ethyl]-2-methyl-2-phenylfuran-3(2H)-one] | 1500 | 3700 |
| CC(C1=CC(=O)C(C)(c2ccccc2)O1)C(SCC(O)C(O)CS)c1ccsc1 (stereo not shown) [Example 8, 5-(2-{[(2S*3S*)-2,3-Dihydroxy-4-mercaptobutyl]thio}-1-methyl-2-thien-3-ylethyl)-2-methyl-2-phenylfuran-3(2H)-one] | 500 | 700 |
| CC1(c2ccccc2)OC(CC(SC[C@@H](O)[C@H](O)CS)c2ccccc2[N+](=O)[O-])=CC1=O (relative stereo) [Example 7, 5-[2-{[(2S*,3S*)-2,3-Dihydroxy-4-mercaptobutyl]thio}-2-(2-nitrophenyl)ethyl]-2-methyl-2-phenylfuran-3(2H)-one] | 320 | 90 |
| CC1(c2ccccc2)OC(CC(SCCCCO)c2ccsc2)=CC1=O (stereo not shown) [Example 10, 5-[2-[(4-Hydroxybutyl)thio]-2-(3-thienyl)ethyl]-2-methyl-2-phenylfuran-3(2H)-one] | 5500 | > 10000 |
| CC1(c2ccc(F)cc2)OC(CC(SCCO)c2ccsc2)=CC1=O (stereo not shown) [Example 19, 2-(4-Fluorophenyl)-5-[2-[(2-hydroxyethyl)thio]-2-(3-thienyl)ethyl]-2-methylfuran-3(2H)-one] | > 10000 |  |
| CC1(c2ccccc2)OC(CC(SCCCS)c2ccsc2)=CC1=O (stereo not shown) [Example 11, 5-[2-[(3-Mercaptopropyl)thio]-2-(3-thienyl)ethyl]-2-methyl-2-phenylfuran-3(2H)-one] | 60 | 150 |
| CC1(c2ccccc2)OC(CC(SCC(S)CO)c2ccsc2)=CC1=O (stereo not shown) [Example 14, 5-[2-[(3-Hydroxy-2-mercaptopropyl)thio]-2-(3-thienyl)ethyl]-2-methyl-2-phenylfuran-3(2H)-one] | 7200 | 4500 |
| CC1(c2ccccc2)OC(CC(SCCCCCS)c2ccsc2)=CC1=O (stereo not shown) [Example 12, 5-[2-[(5-Mercaptopentyl)thio]-2-(3-thienyl)ethyl]-2-methyl-2-phenylfuran-3(2H)-one] | 8000 |  |
| CC1(c2ccccc2)OC(CC(SCCc2cnccn2)c2ccsc2)=CC1=O (stereo not shown) [Example 17, 2-Methyl-2-phenyl-5-[2-[(2-pyrazin-2-ylethyl)thio]-2-(3-thienyl)ethyl]furan-3(2H)-one] | > 10000 | > 10000 |
| CC1(c2ccc(F)cc2)OC(CC(SC[C@H](O)[C@@H](O)CS)c2ccsc2)=CC1=O (stereo partly drawn) [Example 6, 5-(2-{[(2R,3R)-2,3-Dihydroxy-4-mercaptobutyl]thio}-2-thien-3-ylethyl)-2-(4-fluorophenyl)-2-methylfuran-3(2H)-one] | 120 | 140 |
| CC1(c2ccccc2)OC(CC(SCCCO)c2ccsc2)=CC1=O (stereo not shown) [Example 15, 5-[2-[(3-Hydroxypropyl)thio]-2-(3-thienyl)ethyl]-2-methyl-2-phenylfuran-3(2H)-one] | 8300 |  |
| CC1(c2ccccc2)OC(CC(SC[C@H](O)[C@@H](O)CS)c2ccsc2)=CC1=O (stereo partly drawn) [Example 3, 5-[2-{[(2R,3R)-2,3-Dihydroxy-4-mercaptobutyl]thio}-2-(3-thienyl)ethyl]-2-methyl-2-phenylfuran-3(2H)-one] | 180 |  |
| CC1(c2ccccc2)OC(CC(SC[C@@H](O)[C@H](O)CS)c2ccsc2)=CC1=O (relative stereo) [Example 1, 5-(2-{[(2S*,3S*)-2,3-Dihydroxy-4-mercaptobutyl]thio}-2-thien-3-ylethyl)-2-methyl-2-phenylfuran-3(2H)-one] | 60 | 100 |
| CC1(c2ccccc2)OC(CC(SC[C@H](O)[C@H](O)CS)c2ccsc2)=CC1=O (relative stereo) [Example 2, 5-(2-[[(2R*,3S*)-2,3-Dihydroxy-4-mercaptobutyl]thio]-2-thien-3-ylethyl)-2methyl-2-phenylfuran-3(2H)-one] | 190 |  |
| CC1(c2ccccc2)OC(CC(SC[C@H](N)C(=O)O)c2ccsc2)=CC1=O (stereo partly drawn) [Example 20, (2R)-2-Amino-3-{[2-(5-methyl-4-oxo-5-phenyl-4,5-dihydrofuran-2-yl)-1-thien-3-ylethyl]thio}propanoic acid] | > 10000 |  |
| CC1(c2ccccc2)OC(CC(SCCS)c2ccsc2)=CC1=O (stereo not shown) [Example 13, 5-[2-[(2-Mercaptoethyl)thio]-2-(3-thienyl)ethyl]-2-methyl-2-phenylfuran-3(2H)-one] | 180 | 1000 |
| CC1(c2ccccc2)OC(CC(SCC(O)CO)c2ccsc2)=CC1=O (stereo not shown) [Example 16, 5-[2-[(2,3-Dihydroxypropyl)thio]-2-(3-thienyl)ethyl]-2-methyl-2-phenylfuran-3(2H)-one] | 5000 |  |
| CC1(c2ccccc2)OC(CC(SCCO)c2ccsc2)=CC1=O (stereo not shown) [Example 18] | 550 |  |
